Data on 71 substances can be found in US20060293223A1 (Eli Lilly and Company Patent Division, priority 2003, published 2006).

Positions of bridges follow the written chain, without caps; N, C: chain ends. Non-standard residues stand in square brackets, D forms with d. No end group written: not given here. NMeY = CN[C@@H](Cc1ccc(O)cc1)C(=O)O; hCys = N[C@@H](CCS)C(=O)O
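Also: ratio of EC50 values obtained at MC1 versus MC4 receptors, with MC1 potency measured by luciferase reporter activity in stably transfected cells expressing human MC1.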

The test system of the assay is MC1/MC4. The following applies: ratio MC1/MC4.
For the substance “Ac-cyclo[hCys-His-(4-Cl-D-Phe)-Arg-Trp-penicillamine]-NH2 [Compound 169]”, the MC1/MC4 selectivity was determined as 1804.00.

With “R[hCys]H[dF]RWC-NH2 (disulfide 2-7) [Compound 153]”, the MC1/MC4 selectivity was determined as 41.81.

With “Ac-R[hCys]H[dF]RWC-NH2 (disulfide 2-7) [Compound 158]”, the MC1/MC4 selectivity came out at 50.25.

With “Ac-YRCNH[dF]RWC-NH2 (disulfide 3-9) [Compound 5]”, the MC1/MC4 selectivity was 5.00.

For the substance “Ac-YR[hCys]H[dF]RWC-OH (disulfide 3-8) [Compound 165]”, the MC1/MC4 selectivity amounted to 13.53.

“Ac-LCEH[dF]RWC-NH2 (disulfide 2-8) [Compound 57]”: the MC1/MC4 selectivity was 29.00.

As to “Ac-YSCEH[dF]RWC-NH2 (disulfide 3-9) [Compound 129]”, the MC1/MC4 selectivity is given as 22.16.

Turning to “Ac-Tyr-Cit-cyclo[Cys-Glu-His-D-Phe-Arg-Trp-Cys]-NH2 [Compound 124]”, the MC1/MC4 selectivity worked out at 18.11.

For the substance “Ac-Tyr-Arg-cyclo[hCys-Glu-His-D-Phe-Arg-Trp-hCys]-NH2 [Compound 197]”, the MC1/MC4 selectivity was 1.00.

As for “N-cyclohexanecarbonyl-cyclo[hCys-His-D-Phe-Arg-Trp-Cys]-NH2 [Compound 144]”, the MC1/MC4 selectivity came to 14.85.

On to “Arg-cyclo[hCys-(1-Me-His)-D-Phe-Arg-Trp-Cys]-NH2 [Compound 156]”, for which the MC1/MC4 selectivity stood at 158.41.

Turning to “Ac-YRCEH[dF]RWCKP-NH2 (disulfide 3-9) [Compound 121]”, the MC1/MC4 selectivity is recorded as 0.74.

Regarding “Ac-Cit-cyclo[Cys-Glu-(1-Me-His)-D-Phe-Arg-Trp-Cys]-NH2 [Compound 56]”, the MC1/MC4 selectivity is listed as 21.38.

Regarding “Ac-YRCRH[dF]RWC-NH2 (disulfide 3-9) [Compound 4]”, the MC1/MC4 selectivity is 0.26.

Regarding “N-succinyl-Tyr-Arg-cyclo[Cys-Glu-His-D-Phe-Arg-Trp-Cys]-OH [Compound 131]”, the MC1/MC4 selectivity worked out at 7.00.

For the substance “Ac-YRCTH[dF]RWC-NH2 (disulfide 3-9) [Compound 22]”, the MC1/MC4 selectivity stood at 6.85.

Consider “Ac-Arg-cyclo[Cys-His-(4-Cl-D-Phe)-Arg-Trp-hCys]-NH2 [Compound 191]”, for which the MC1/MC4 selectivity is 127.33.

On to “Ac-Tyr-Arg-cyclo[Cys-Glu-(β-(1,2,4-triazol-3-yl))-Ala)-D-Phe-Arg-Trp-Cys]-NH2 [Compound 106]”, for which the MC1/MC4 selectivity was 23.95.

With “Ac-Tyr-Arg-cyclo[D-Cys-Glu-His-D-Phe-Arg-Trp-Cys]-NH2 [Compound 80]”, the MC1/MC4 selectivity was determined as 8.24.

As to “Ac-YVCEH[dF]RWC-NH2 (disulfide 3-9) [Compound 130]”, the MC1/MC4 selectivity is listed as 26.88.

For the substance “Ac-VCEH[dF]RWC-NH2 (disulfide 2-8) [Compound 63]”, the MC1/MC4 selectivity was determined as 30.51.

Regarding “cyclo[hCys-His-D-Phe-Arg-Trp-Cys]-NH2 [Compound 132]”, the MC1/MC4 selectivity turned out to be 77.32.

Consider “Arg-cyclo[Cys-His-(4-F-D-Phe)-Arg-Trp-hCys]-NH2 [Compound 187]”, for which the MC1/MC4 selectivity worked out at 20.76.

Take “Ac-D-Arg-cyclo[Cys-Glu-His-D-Phe-Arg-Trp-Cys]-NH2 [Compound 52]”: the MC1/MC4 selectivity turned out to be 30.54.

On to “N-succinyl-Tyr-Arg-cyclo[Cys-Glu-His-D-Phe-Arg-Trp-Cys]-NH2 [Compound 74]”, for which the MC1/MC4 selectivity stood at 12.00.

With “[NMeY]RCMH[dF]RWC-NH2 (disulfide 3-9) [Compound 17]”, the MC1/MC4 selectivity is given as 10.42.

With “Ac-YRCEH[dF]RWCE-NH2 (disulfide 3-9) [Compound 118]”, the MC1/MC4 selectivity amounted to 4.52.

Take “Arg-cyclo[Cys-Glu-His-D-Phe-Arg-Trp-Cys]-OH [Compound 45]”: the MC1/MC4 selectivity came to 30.47.

In the case of “Ac-Tyr-Arg-cyclo[Cys-Glu-His-(4-Br-D-Phe)-Arg-Trp-Cys]-NH2 [Compound 89]”, the MC1/MC4 selectivity came to 71.43.

Take “N-(2-naphthalenesulfonyl)-D-Arg-cyclo[Cys-Glu-His-D-Phe-Arg-Trp-Cys]-NH2 [Compound 64]”: the MC1/MC4 selectivity is 4.12.

Consider “N-(2-naphthalenesulfonylamino-4-oxo-butyryl)-D-Arg-cyclo[Cys-Glu-His-D-Phe-Arg-Trp-Cys]-NH2 [Compound 65]”, for which the MC1/MC4 selectivity was 2.70.

In the case of “YR[hCys]H[dF]RWC-OH (disulfide 3-8) [Compound 163]”, the MC1/MC4 selectivity was determined as 19.46.

Turning to “Ac-Tyr-Arg-cyclo[Cys-Glu-His-D-Phe-Arg-Trp-Cys]-OH [Compound 73]”, the MC1/MC4 selectivity came out at 12.77.

In the case of “Ac-cyclo[hCys-His-(β-cyclohexyl-D-Ala)-Arg-Trp-Cys]-NH2 [Compound 167]”, the MC1/MC4 selectivity was determined as 3.36.

Regarding “Arg-cyclo[hCys-(1-Me-D-His)-D-Phe-Arg-Trp-Cys]-NH2 [Compound 157]”, the MC1/MC4 selectivity is 17.60.

On to “Ac-Tyr-Arg-cyclo[Cys-Glu-(3-Me-His)-D-Phe-Arg-Trp-Cys]-NH2 [Compound 96]”, for which the MC1/MC4 selectivity amounted to 20.87.

Consider “phenylsulfonyl-Gly-cyclo[hCys-His-D-Phe-Arg-Trp-Cys]-NH2 [Compound 161]”, for which the MC1/MC4 selectivity is recorded as 2.18.

In the case of “Ac-Tyr-Arg-cyclo[Cys-Glu-(5-Me-His)-D-Phe-Arg-Trp-Cys]-NH2 [Compound 97]”, the MC1/MC4 selectivity turned out to be 8.03.

Take “Tyr-Arg-cyclo[Cys-Glu-His-D-Phe-Arg-Trp-Cys]-NH—(CH2)6—NH2 [Compound 70]”: the MC1/MC4 selectivity is given as 2.00.

Consider “Ac-Tyr-Arg-cyclo[Cys-Glu-(1-Bom-His)-D-Phe-Arg-Trp-Cys]-NH2 [Compound 101]”, for which the MC1/MC4 selectivity is reported as 0.97.

As to “Ac-Tyr-Arg-cyclo[Cys-Glu-(4-phenyl-1H-imidazol-2-yl-D-Ala)-D-Phe-Arg-Trp-Cys]-NH2 [Compound 104]”, the MC1/MC4 selectivity amounted to 3.68.

For the substance “Ac-CEH[dF]RWCSP-NH2 (disulfide 1-7) [Compound 36]”, the MC1/MC4 selectivity stood at 1.22.

Consider “Ac-YRCSH[dF]RWC-NH2 (disulfide 3-9) [Compound 21]”, for which the MC1/MC4 selectivity was determined as 10.27.

For the substance “RCH[dF]RW[hCys]-NH2 (disulfide 2-7) [Compound 186]”, the MC1/MC4 selectivity turned out to be 11.44.

With “Ac-R[hCys]H[dF]RWC-OH (disulfide 2-7) [Compound 159]”, the MC1/MC4 selectivity was 49.41.

As to “Ac-YKCEH[dF]RWC-NH2 (disulfide 3-9) [Compound 128]”, the MC1/MC4 selectivity came to 22.46.

On to “Ac-Tyr-Arg-cyclo[Cys-Glu-(1-Me-D-His)-(4-Br-D-Phe)-Arg-Trp-Cys]-NH2 [Compound 91]”, for which the MC1/MC4 selectivity is reported as 21.14.

Turning to “Ac-CQH[dF]RWC-NH2 (disulfide 1-7) [Compound 8]”, the MC1/MC4 selectivity worked out at 3.33.

“Ac-YRCMH[dF]RWC-NH2 (disulfide 3-9) [Compound 18]”: the MC1/MC4 selectivity amounted to 8.15.

“Ac-Tyr-Arg-cyclo[Cys-Glu-(β-(1,3-thiazol-4-yl)-Ala)-D-Phe-Arg-Trp-Cys]-NH2 [Compound 112]”: the MC1/MC4 selectivity came to 5.62.

For the substance “Ac-Tyr-Arg-cyclo[Cys-Glu-(β-(pyridin-4-yl)-Ala)-D-Phe-Arg-Trp-Cys]-NH2 [Compound 113]”, the MC1/MC4 selectivity turned out to be 13.51.

For the substance “Ac-Tyr-Arg-cyclo[Cys-Glu-(β-((1-benzyl)-1,2,4-triazol-3-yl))-D-Ala)-D-Phe-Arg-Trp-Cys]-NH2 [Compound 108]”, the MC1/MC4 selectivity worked out at 5.99.

Take “4-phenylbutyryl-cyclo[hCys-His-D-Phe-Arg-Trp-Cys]-NH2 [Compound 147]”: the MC1/MC4 selectivity was determined as 0.86.

Consider “Ac-YRCPH[dF]RWC-NH2 (disulfide 3-9) [Compound 20]”, for which the MC1/MC4 selectivity was found to be 4.81.

Take “Ac-YRCVH[dF]RWC-NH2 (disulfide 3-9) [Compound 25]”: the MC1/MC4 selectivity came to 11.00.

On to “Ac-cyclo[hCys-His-D-Phe-Arg-Trp-Cys]-OH [Compound 138]”, for which the MC1/MC4 selectivity is listed as 38.81.

Take “Ac-Tyr-Arg-cyclo[Cys-Glu-(1-Me-D-His)-D-Phe-Arg-Trp-Cys]-NH2 [Compound 82]”: the MC1/MC4 selectivity is recorded as 1.66.

Consider “Ac-Tyr-Arg-cyclo[Cys-Glu-(1-Me-D-His)-(4-Cl-D-Phe)-Arg-Trp-Cys]-NH2 [Compound 88]”, for which the MC1/MC4 selectivity is recorded as 9.07.

In the case of “Ac-Tyr-Arg-cyclo[Cys-Glu-His-D-Phe-Arg-Trp-Cys]-NH2 [Compound 72]”, the MC1/MC4 selectivity is given as 22.31.

As for “Ac-YRCYH[dF]RWC-NH2 (disulfide 3-9) [Compound 24]”, the MC1/MC4 selectivity was 8.00.

“Ac-YRCEH[dF]RWCSP-NH2 (disulfide 3-9) [Compound 119]”: the MC1/MC4 selectivity was determined as 0.86.

Take “Tyr-Arg-cyclo[Cys-Glu-His-D-Phe-Arg-Trp-Cys]-NH2 [Compound 68]”: the MC1/MC4 selectivity came out at 14.08.

As to “Ac-Tyr-Arg-cyclo[Cys-Glu-(1-benzyl-His)-D-Phe-Arg-Trp-Cys]-NH2 [Compound 99]”, the MC1/MC4 selectivity was 88.42.

In the case of “Ac-Tyr-(1-β-hArg)-cyclo[Cys-Glu-His-D-Phe-Arg-Trp-Cys]-NH2 [Compound 127]”, the MC1/MC4 selectivity was found to be 20.25.

Consider “Ac-Tyr-Arg-cyclo[Cys-Glu-His-D-Phe-Arg-Trp-Cys]-Lys-Pro alcohol [Compound 122]”, for which the MC1/MC4 selectivity is listed as 0.90.

Consider “Ac-YR[hCys]H[dF]RWC-NH2 (disulfide 3-8) [Compound 164]”, for which the MC1/MC4 selectivity came out at 7.79.

With “Ac-CLH[dF]RWC-NH2 (disulfide 1-7) [Compound 15]”, the MC1/MC4 selectivity came out at 14.75.

Regarding “Ac-[hCys]H[dF]RW[hCys]-NH2 (disulfide 1-6) [Compound 193]”, the MC1/MC4 selectivity was 26.59.

For the substance “Ac-cyclo[Cys-Glu-(1-Me-His)-D-Phe-Arg-Trp-Cys]-NH2 [Compound 34]”, the MC1/MC4 selectivity is on record as 11.52.

On to “3-(4-hydroxyphenyl)propionyl-Arg-cyclo[Cys-Glu-His-D-Phe-Arg-Trp-Cys]-NH2 [Compound 66]”, for which the MC1/MC4 selectivity was determined as 13.23.

With “3-(4-methylbenzoyl)propionyl-Arg-cyclo[Cys-Glu-His-D-Phe-Arg-Trp-Cys]-NH2 [Compound 67]”, the MC1/MC4 selectivity is 9.15.
